Columns and labels:
Type in all cases: in vivo
[1] = test system: Davidia involucrata saplings; assay: cultivating the strong seedlings; design: unit not given here; details: for K1: mean average height at level 1 of the factor (GA3 0.5, NAA 0.5, 6-BA 0.2); for K2: mean average height at level 2 of the factor (GA3 1.0, NAA 1.0, 6-BA 0.6); for K3: mean average height at level 3 of the factor (GA3 1.5, NAA 1.5, 6-BA 1.0); for R: range of K values of the factor, average height
Method: inoculating the plurality of Davidia involucrata saplings obtained in step (4) in nine groups of WPM medium (See Table 8) containing different concentrations of NAA, 6-BA and GA3 at the temperature of 24±1° C. and illuminating for 10 hours per day at 2000 1× to cultivate the plurality of Davidia involucrata saplings obtained in step (4) for 36 days. The amount of AC added for each group of WPM medium is 1.0 g/L. Calculating the average height of the saplings (See Table 9).

[2] = test system: Davidia involucrata saplings; assay: rooting cultivation (orthogonal experiment); design: unit not given here; details: for K1: mean rooting ratio at level 1 of the factor (¼MS, IBA 1.0, 6-BA 0, AC 0.5); for K2: mean rooting ratio at level 2 of the factor (WPM, IBA 2.0, 6-BA 1.0, AC 1.0); for K3: mean rooting ratio at level 3 of the factor (White, IBA 3.0, 6-BA 1.5, AC 1.5); for R: range of K values of the factor, rooting ratio
Method: inoculating the plurality of Davidia involucrata saplings in good condition obtained in step (5) in the White, WPM and 1/4 MS medium (See Table 10) containing different concentrations of IBA, 6-BA and AC at the temperature of 24±1° C. and illuminating for 10 hours per day at 2000 1× to cultivate the plurality of Davidia involucrata saplings in good condition obtained in step (5) until rooting. Analyzing the rooting results (See Table 11).

[3] = test system: Davidia involucrata winter buds; assay: disinfecting and sterilizing of the winter buds
Method: disinfecting and sterilizing of the winter buds: immersing the plurality of winter buds collected in the field into a detergent solution with a concentration of […] for 2 minutes, gently cleaning the bud scales using a soft brush, rinsing for 2 hours with running water, and then immersing the winter buds using the 0.1% mercuric chloride solution for 20 minutes on a clean bench, rinsing with sterile water for more than 5 times, blotting up the water on the surface of the explants with sterile filter paper, stripping up all the scales of the winter buds using a tweezer to obtain the buds, treating with 75% ethanol and mercuric chloride solution or treating with mercuric chloride solution only. Wherein each treatment is inoculated into 30 bottles and 2 explants in each bottle. The specific progress is as follows: […]

[4] = Disposal 1: mercuric chloride only, treating time 4 min
[5] = Disposal 2: mercuric chloride only, treating time 5 min
[6] = Disposal 3: mercuric chloride only, treating time 6 min
[7] = Disposal 4: mercuric chloride only, treating time 7 min
[8] = Disposal 5: mercuric chloride only, treating time 8 min

## C=C1C[C@]23C[C@@]1(O)CC[C@H]2[C@@]12C=C[C@H](O)[C@@](C)(C(=O)O1)[C@H]2[C@@H]3C(=O)O [GA3]
[1]
  K1: 1.663
  K2: 2.037
  K3: 1.713
  R: 0.374

## O=C(O)Cc1cccc2ccccc12 [NAA]
[1]
  K1: 1.537
  K2: 2.067
  K3: 1.810
  R: 0.530

## O=C(O)CCCc1c[nH]c2ccccc12 [IBA]
[2]
  K1: 55.663
  K2: 62.337
  K3: 55.397
  R: 6.940

## c1ccc(CNc2ncnc3[nH]cnc23)cc1 [6-BA]
[2]
  K1: 48.340
  K2: 67.907
  K3: 57.150
  R: 19.567
[1]
  K1: 1.820
  K2: 1.697
  K3: 1.897
  R: 0.200

## [Cl][Hg][Cl] [0.01% mercuric chloride solution, mercuric chloride]
[3]; [4]
  Death rate (%): 3%
  Pollution rate (%): 38%
[3]; [5]
  Death rate (%): 5%
  Pollution rate (%): 27.2%
[3]; [6]
  Death rate (%): 6%
  Pollution rate (%): 18%
[3]; [7]
  Death rate (%): 36%
  Pollution rate (%): 16%
[3]; [8]
  Death rate (%): 45%
  Pollution rate (%): 10%
